The text below walks through data of the NIST ThermoML archive (doi:10.1016/j.jct.2006.09.007).

The conditions of data set [1]: 101.3 kPa, Liquid.
Data set [2] can be described thus: molar heat capacity at constant pressure. The following applies: 298.15 K; 101.33 kPa; Liquid; Flow calorimetry.

The structures appear in SMILES notation. ± gives the expanded uncertainty stated by the source.

What is called mass density is the mass of a sample divided by its volume. In the case of `Cc1cccc(C)c1` [1,3-dimethylbenzene], the mass density in data set [1] (298.15 K) is 859.68 ± 0.49 kg/m3; in data set [1] (308.15 K), 850.01 ± 0.5 kg/m3. In addition, the “molar heat capacity at constant pressure” value in data set [2] is 181.38 ± 0.37 J/K/mol.
On the same counts, the results for `N#Cc1ccccc1` [benzonitrile] are 1000.25 ± 0.13 kg/m3, 990.67 ± 0.15 kg/m3 and 166.41 ± 0.34 J/K/mol.
On the same counts, the results for `Cc1cc(C)cc(C)c1` [1,3,5-trimethylbenzene] are 860.9 ± 0.49 kg/m3, 851.88 ± 0.5 kg/m3 and 207.43 ± 0.42 J/K/mol.
On the same counts, the results for `Cc1ccc(C)c(C)c1` [1,2,4-trimethylbenzene] are 871.56 ± 0.48 kg/m3, 862.53 ± 0.49 kg/m3 and 213.02 ± 0.44 J/K/mol.
Consider `COc1ccccc1` [anisole], for which the mass density in data set [1] (298.15 K) stood at 988.98 ± 0.34 kg/m3; in data set [1] (308.15 K), 978.7 ± 0.35 kg/m3. In addition, the “molar heat capacity at constant pressure” value in data set [2] turned out to be 191.54 ± 0.39 J/K/mol.
The matching figures for `Cc1ccc(C)cc1` [1,4-dimethylbenzene]: 856.48 ± 0.49 kg/m3, 846.98 ± 0.51 kg/m3 and 181.73 ± 0.37 J/K/mol.
Regarding `CC(C)c1ccccc1` [isopropylbenzene], the mass density in data set [1] (298.15 K) is reported as 857.41 ± 0.49 kg/m3; in data set [1] (308.15 K) it was 848.26 ± 0.5 kg/m3. In addition, the “molar heat capacity at constant pressure” value in data set [2] is given as 214.75 ± 0.44 J/K/mol.
For `CCc1ccccc1` [ethylbenzene], the mass density in data set [1] (298.15 K) was 862.41 ± 0.49 kg/m3; in data set [1] (308.15 K) it was 852.72 ± 0.5 kg/m3. In addition, the “molar heat capacity at constant pressure” value in data set [2] was 185.44 ± 0.38 J/K/mol.
